From publication PMC6321453, “Identification of Pinocembrin as an Anti-Glycation Agent and α-Glucosidase Inhibitor from Fingerroot (Boesenbergia rotunda): The Tentative Structure–Activity Relationship towards MG-Trapping Activity” (Molecules, 2018)

Assays:
[1] = Direct MG-trapping activity by HPLC; conditions: compound 0.1 mM, MG 0.1 mM, PBS pH 7.4, 37 °C, 24 h; HPLC of 2-MQ
Experimental: Figure 3 The percentage of MG-trapping abilities of isolated compounds (0.1 mM). The results are presented as the mean ± SEM for n = 3. Different letters show significant differences, as analyzed by ANOVA, with Duncan’s post hoc test (p < 0.05).
The ability of the isolated compounds to trap MG was carried out, according to our previous report. The reaction mixture of MG (0.1 mM), isolated compound (0.1 mM in DMSO) and 0.1 M PBS (pH 7.4) was incubated at 37 °C for 24 h. The quantitative amount of the remaining MG was determined by derivatization with o-phenylenediamine (o-PDA) to convert to 2-methylquinoxaline (2-MQ). Then, 2-MQ obtained was measured by HPLC using 5-methylquinoxaline (5-MQ) as an internal standard. The mixture comprising 100 µL of o-PDA (20 mM) and 100 µL of 5-MQ (5 mM) was added into the sample vials, and incubated at 25 °C for 30 min. HPLC analysis was performed on a Shimadzu HPLC system (binary pump; model LC-10A, an auto-injector; model SIL-10A, and a UV detector; model SPD-10A) equipped with an Inertsil ODS-3 V C18 column (4.6 × 150 mm, 5 μm particle diameter). The column was flushed with a mixture of 1:1 methanol–water at a flow rate of 1 mL/min, and a 10 μL of injection volume. The overall running time was 15 min, and the wavelength used for detection was 315 nm. The area under each chromatogram peak, 2-MQ and 5-MQ, was calculated with an LC solution program. Peak integrality proportions of 2-MQ to 5-MQ were utilized for quantitative examination. The amount of MG was calculated by utilizing the standard curve of 2-MQ/5-MQ proportion. AG was utilized as a positive control. The percentage MG-trapping was calculated utilizing the formula below:(2) %MG−trapping=100−[Amount of (MG in sample−MG in positive control)/Amount of MG in positive control×100]

[2] = tested on: MG-derived AGEs formation in BSA; assay: In vitro glycation of BSA by MG-BSA assay (fluorescent-AGEs formation); format: biochemical, bovine; conditions: compound 0.1 mM, BSA 10 mg/mL, MG 0.25 mM, PBS pH 7.4, 37 °C, 24 h; fluorescence ex 355/em 460 nm
Experimental: All isolated compounds were evaluated for their inhibitory effect on the fluorescent-AGEs formation after incubation with bovine serum albumin (BSA) and MG for 24 h (Figure 2).
Figure 2 Advanced glycation-end products (AGEs) inhibition activity of aminoguanidine (0.1 mM) and isolated compounds (0.1 mM) on MG-derived AGEs formation inhibition in BSA. The results are presented as mean ± SEM for n = 3. Different letters show significant differences analyzed by ANOVA with Duncan’s post hoc test (p < 0.05).
Glycated BSA was carried out according to our previous study. The mixture of bovine serum albumin (BSA, 10 mg/mL), isolated compound (0.1 mM in dimethyl sulfoxide, DMSO), and methylglyoxal (MG, 0.25 mM) in 0.1 M phosphate buffer solution (PBS, pH 7.4) was incubated at 37 °C for 24 h. The glycated BSA was monitored by a spectrofluorometer (Fluroskan Ascent FL, Thermo Scientific, Barrington, IL, USA) at the excitation wavelength of 355 nm, and an emission wavelength of 460 nm. Aminoguanidine hydrochloride (AG) was utilized as a positive control. The percentage inhibition of MG-derived AGE formation was calculated by utilizing the formula below:(1) Inhibition of AGEs formation (%)=(FC−FCB)−(FS−FSB)/FC−FCB×100 where FC and FCB are the fluorescent intensities of the control with and without MG, respectively. FS and FSB are the fluorescent intensities of the sample with and without MG, respectively.

rat intestinal maltase = assay: α-Glucosidase inhibitory activity and kinetic study, maltase; format: biochemical
Experimental: (§1) The α-glucosidase (from rat intestine) inhibitory effect was evaluated, utilizing our previous study. Rat intestinal maltase and sucrase, a crude enzyme solution, was prepared from rat intestinal acetone powder. A solution of rat intestinal acetone powder (1 g) in 0.9% NaCl solution (30 mL) was centrifuged (12,000 rpm) for 30 min, and then the aliquot obtained was used for the assay. The mixture of 10 μL of isolated compounds (1 mg/mL in DMSO), 30 μL of the phosphate buffer (0.1 M, pH 6.9), and 20 μL of the substrate solution (10 mM for maltose and 100 mM for sucrose in phosphate buffer) was added to a glucose assay kit (80 μL) and the crude enzyme solution (20 μL), which then was incubated at 37 °C for 10 min and 40 min for maltose and sucrose, respectively. The enzymatic activity was measured at 503 nm by using a microplate reader, model 3550 UV. The percentage inhibition was calculated by [(Ac − As)/Ac] × 100, where Ac is the absorbance of the control, and As is the absorbance in the presence of sample. The results were reported as the IC50 value, and the experiment was carried out in triplicate. Acarbose® was used as a standard control.
(§2) The kinetic analysis of pinocembrin was determined by using an increasing concentration of substrates maltose (2–10 mM) and sucrose (20–100 mM), and a Lineweaver–Burk plot was performed to determine the type of inhibition. The secondary plot was utilized to determine the Ki and Ki′ values, which were replotted between the slope and intercept from the Lineweaver–Burk plot vs the various concentrations of pinocembrin.

rat intestinal sucrase = target: T1, rat intestinal sucrase (Rattus norvegicus, UniProt P23739); assay: α-Glucosidase inhibitory activity and kinetic study, sucrase; format: biochemical
T1 construct: a crude enzyme solution, was prepared from rat intestinal acetone powder; from tissue; host or cells: rat intestine (acetone powder, crude extract)
T1 sequence (P23739 whole entry): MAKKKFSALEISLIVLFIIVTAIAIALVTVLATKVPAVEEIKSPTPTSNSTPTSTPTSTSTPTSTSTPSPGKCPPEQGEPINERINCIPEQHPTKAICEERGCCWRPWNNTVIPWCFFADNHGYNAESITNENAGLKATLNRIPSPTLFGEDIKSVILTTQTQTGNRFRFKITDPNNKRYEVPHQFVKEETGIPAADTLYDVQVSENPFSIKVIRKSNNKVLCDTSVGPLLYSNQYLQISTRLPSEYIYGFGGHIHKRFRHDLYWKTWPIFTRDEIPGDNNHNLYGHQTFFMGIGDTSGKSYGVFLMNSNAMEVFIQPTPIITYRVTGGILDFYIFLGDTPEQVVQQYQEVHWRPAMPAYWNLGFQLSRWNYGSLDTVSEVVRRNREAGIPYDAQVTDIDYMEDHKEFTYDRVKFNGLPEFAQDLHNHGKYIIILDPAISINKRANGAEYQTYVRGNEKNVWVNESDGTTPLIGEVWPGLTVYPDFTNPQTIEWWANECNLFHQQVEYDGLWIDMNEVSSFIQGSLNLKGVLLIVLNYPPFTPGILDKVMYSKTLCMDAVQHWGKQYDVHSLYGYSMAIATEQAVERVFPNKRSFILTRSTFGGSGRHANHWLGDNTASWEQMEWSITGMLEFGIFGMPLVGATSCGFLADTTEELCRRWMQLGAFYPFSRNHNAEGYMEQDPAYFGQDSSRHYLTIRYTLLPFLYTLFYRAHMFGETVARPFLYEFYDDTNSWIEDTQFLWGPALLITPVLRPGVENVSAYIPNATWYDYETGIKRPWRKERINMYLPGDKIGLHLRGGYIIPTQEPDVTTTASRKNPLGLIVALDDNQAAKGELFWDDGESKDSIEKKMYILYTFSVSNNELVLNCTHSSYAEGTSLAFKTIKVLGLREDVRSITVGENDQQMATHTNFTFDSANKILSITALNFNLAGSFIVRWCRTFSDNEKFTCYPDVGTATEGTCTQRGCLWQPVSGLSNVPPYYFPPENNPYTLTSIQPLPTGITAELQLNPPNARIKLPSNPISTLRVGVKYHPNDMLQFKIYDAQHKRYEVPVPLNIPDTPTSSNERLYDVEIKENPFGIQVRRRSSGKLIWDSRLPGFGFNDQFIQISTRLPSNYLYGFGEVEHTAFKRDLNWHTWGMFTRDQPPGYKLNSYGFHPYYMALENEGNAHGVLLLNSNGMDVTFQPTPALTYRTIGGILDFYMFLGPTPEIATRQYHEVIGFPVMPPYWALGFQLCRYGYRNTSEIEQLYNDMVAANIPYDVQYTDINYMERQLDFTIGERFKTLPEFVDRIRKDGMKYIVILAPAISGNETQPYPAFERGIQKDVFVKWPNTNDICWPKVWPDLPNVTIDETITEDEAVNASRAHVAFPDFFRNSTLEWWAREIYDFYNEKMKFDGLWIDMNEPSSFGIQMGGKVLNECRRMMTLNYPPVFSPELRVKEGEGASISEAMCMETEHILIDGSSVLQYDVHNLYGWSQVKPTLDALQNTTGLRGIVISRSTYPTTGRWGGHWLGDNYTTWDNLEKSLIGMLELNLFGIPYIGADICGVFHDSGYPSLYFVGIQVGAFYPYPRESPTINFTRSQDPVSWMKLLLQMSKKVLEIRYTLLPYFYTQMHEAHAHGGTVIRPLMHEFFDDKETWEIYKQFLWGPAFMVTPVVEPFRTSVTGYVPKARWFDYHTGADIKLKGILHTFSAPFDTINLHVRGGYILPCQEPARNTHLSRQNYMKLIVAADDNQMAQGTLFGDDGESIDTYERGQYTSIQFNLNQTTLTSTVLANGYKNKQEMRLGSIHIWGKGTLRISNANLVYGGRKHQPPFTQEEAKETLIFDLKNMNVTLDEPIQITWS
Experimental: as §1, §2

[3] = Direct MG-trapping activity by HPLC; conditions: against methylglyoxal

Compound	MG-trapping activity, percentage related to AG (100%) [1]	Inhibition of MG-derived AGEs formation [2]	further results
Cl.N=C(N)NN [AG, Aminoguanidine hydrochloride, reference compound]	100%	28%	
O=C1C[C@@H](c2ccccc2)Oc2cc(O)cc(O)c21 [compound 1, pinocembrin]	109%	38%	Inhibition Type (rat intestinal maltase; maltase, Lineweaver–Burk plot): mixed-type; Ki (rat intestinal maltase; maltase, dissociation constant of EI complex, secondary plot of slope): 93 µM; Ki (rat intestinal maltase; maltase, dissociation constant of ESI complex, secondary plot of intercept): 138 µM; IC50 (rat intestinal maltase; rat intestinal maltase, substrate maltose, read-out: IC50 against maltase): 350 ± 21 µM; IC50 (rat intestinal sucrase; rat intestinal sucrase, substrate sucrose, read-out: IC50 against sucrose): 390 ± 20 µM; Inhibition Type (rat intestinal sucrase; sucrase, Lineweaver–Burk plot): mixed-type inhibition; Ki (rat intestinal sucrase; sucrase, dissociation constant of EI complex): 51 µM; Ki (rat intestinal sucrase; sucrase, dissociation constant of ESI complex): 253 µM; EC50 [3]: 63.2 ± 10.1 µM
COc1cc(O)c2c(c1)O[C@H](c1ccccc1)CC2=O [compound 2, pinostrobin]	5%	19%	
COc1cc(O)cc(O)c1C(=O)/C=C/c1ccccc1 [compound 4, cardamomin]	28%	44%	
COc1cc2c(c(O)c1C(=O)/C=C/c1ccccc1)C=CC(C)(CCC=C(C)C)O2 (stereo not drawn) [compound 5, boesenbergin B]	19%	39%	
COc1cc(O)c(C(=O)[C@@H]2[C@H](CC=C(C)C)C(C)=CC[C@H]2c2ccccc2)c(O)c1 [compound 6, panduratin A]	60%	43%	
COc1cc(O)cc(O)c1C(=O)C1C(CC=C(C)C)C(C)=CCC1c1ccccc1 (stereo not drawn) [compound 7, isopanduratin A]	9%	36%	
COc1cc(/C=C/c2ccccc2)oc(=O)c1 [compound 8, demethoxyyangonin]	23%	46%	
alpinetin [compound 3]	14%	50%	
